Key:
Experiment in all cases: radiometric filter-binding kinase assay
CLK2 (human) = CLK2 (human) (UniProt P49760)
CHEK1 (human) = CHEK1 (human) (UniProt O14757)
PIM3 (human) = PIM3 (human) (UniProt Q86V86)
SRPK1 (human) = SRPK1 (human) (UniProt Q96SB4)
[1] = tested on: SGK1 (human), O00141 [S422D]
MAPKAPK2 (human) = MAPKAPK2 (human) (UniProt P49137)
PAK7 (human) = PAK7 (human) (UniProt Q9P286)
DYRK1A (human) = DYRK1A (human) (UniProt Q13627)
MAP3K7 TAB1 (human) = MAP3K7 TAB1 (human) (UniProt Q15750+O43318)
PLK1 (human) = PLK1 (human) (UniProt P53350)
NEK2 (human) = NEK2 (human) (UniProt P51955)
PAK4 (human) = PAK4 (human) (UniProt O96013)
PKN2 (human) = PKN2 (human) (UniProt Q16513)
NEK6 (human) = NEK6 (human) (UniProt Q9HC98)
EPHA4 (human) = EPHA4 (human) (UniProt P54764)
MAPK3 (human) = MAPK3 (human) (UniProt P27361)
MAPK12 (human) = MAPK12 (human) (UniProt P53778)
RPS6KA3 KD1 KD2 (human) = RPS6KA3 KD1 KD2 (human) (UniProt P51812)
IGF1R (human) = IGF1R (human) (UniProt P08069)
CSNK1D (human) = CSNK1D (human) (UniProt P48730)
PAK6 (human) = PAK6 (human) (UniProt Q9NQU5)
PIM2 (human) = PIM2 (human) (UniProt Q9P1W9)
RPS6KA5 KD1 KD2 (human) = RPS6KA5 KD1 KD2 (human) (UniProt O75582)
[2] = tested on: PAK2 (human), Q13177 [T402E]
CAMKK2 (human) = CAMKK2 (human) (UniProt Q96RR4)
RIPK2 (human) = RIPK2 (human) (UniProt O43353)
MARK2 (human) = MARK2 (human) (UniProt Q7KZI7)
IKBKE (human) = IKBKE (human) (UniProt Q14164)
MAPK15 (human) = MAPK15 (human) (UniProt Q8TD08)
HIPK3 (human) = HIPK3 (human) (UniProt Q9H422)
[3] = tested on: AKT2 (human), P31751 [S474D]
IRAK4 (human) = IRAK4 (human) (UniProt Q9NWZ3)
MST4 (human) = MST4 (human) (UniProt Q9P289)
MAPK14 (human) = MAPK14 (human) (UniProt Q16539)
MARK1 (human) = MARK1 (human) (UniProt Q9P0L2)

MST4 (human), sequence (Q9P289 whole entry, looked up): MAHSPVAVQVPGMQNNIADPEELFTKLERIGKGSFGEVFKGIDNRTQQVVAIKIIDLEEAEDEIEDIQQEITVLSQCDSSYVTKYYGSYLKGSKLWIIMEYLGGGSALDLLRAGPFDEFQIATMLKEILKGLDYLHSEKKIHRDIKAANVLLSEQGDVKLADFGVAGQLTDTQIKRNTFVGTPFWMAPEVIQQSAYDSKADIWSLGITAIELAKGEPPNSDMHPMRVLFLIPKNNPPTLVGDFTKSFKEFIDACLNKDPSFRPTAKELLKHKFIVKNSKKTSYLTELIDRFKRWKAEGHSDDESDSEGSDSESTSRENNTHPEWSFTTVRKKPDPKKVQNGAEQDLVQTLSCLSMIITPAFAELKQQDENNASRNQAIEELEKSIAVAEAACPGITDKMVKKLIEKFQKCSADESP
AKT2 (human), P31751 [S474D], sequence (P31751 whole entry S474D, looked up): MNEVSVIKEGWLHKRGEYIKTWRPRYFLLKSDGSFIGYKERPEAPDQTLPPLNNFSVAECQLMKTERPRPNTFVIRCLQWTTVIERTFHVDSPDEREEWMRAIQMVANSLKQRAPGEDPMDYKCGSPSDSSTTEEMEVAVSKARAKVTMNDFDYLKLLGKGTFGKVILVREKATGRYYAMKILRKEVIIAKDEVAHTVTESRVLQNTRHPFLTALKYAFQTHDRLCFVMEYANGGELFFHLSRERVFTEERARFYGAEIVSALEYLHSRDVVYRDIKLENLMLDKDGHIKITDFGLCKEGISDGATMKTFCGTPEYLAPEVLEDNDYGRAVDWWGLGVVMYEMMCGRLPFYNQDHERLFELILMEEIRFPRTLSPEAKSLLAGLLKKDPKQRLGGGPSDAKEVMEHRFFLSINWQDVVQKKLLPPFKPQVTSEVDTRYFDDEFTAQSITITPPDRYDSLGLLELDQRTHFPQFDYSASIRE
IGF1R (human), sequence (P08069 whole entry, looked up): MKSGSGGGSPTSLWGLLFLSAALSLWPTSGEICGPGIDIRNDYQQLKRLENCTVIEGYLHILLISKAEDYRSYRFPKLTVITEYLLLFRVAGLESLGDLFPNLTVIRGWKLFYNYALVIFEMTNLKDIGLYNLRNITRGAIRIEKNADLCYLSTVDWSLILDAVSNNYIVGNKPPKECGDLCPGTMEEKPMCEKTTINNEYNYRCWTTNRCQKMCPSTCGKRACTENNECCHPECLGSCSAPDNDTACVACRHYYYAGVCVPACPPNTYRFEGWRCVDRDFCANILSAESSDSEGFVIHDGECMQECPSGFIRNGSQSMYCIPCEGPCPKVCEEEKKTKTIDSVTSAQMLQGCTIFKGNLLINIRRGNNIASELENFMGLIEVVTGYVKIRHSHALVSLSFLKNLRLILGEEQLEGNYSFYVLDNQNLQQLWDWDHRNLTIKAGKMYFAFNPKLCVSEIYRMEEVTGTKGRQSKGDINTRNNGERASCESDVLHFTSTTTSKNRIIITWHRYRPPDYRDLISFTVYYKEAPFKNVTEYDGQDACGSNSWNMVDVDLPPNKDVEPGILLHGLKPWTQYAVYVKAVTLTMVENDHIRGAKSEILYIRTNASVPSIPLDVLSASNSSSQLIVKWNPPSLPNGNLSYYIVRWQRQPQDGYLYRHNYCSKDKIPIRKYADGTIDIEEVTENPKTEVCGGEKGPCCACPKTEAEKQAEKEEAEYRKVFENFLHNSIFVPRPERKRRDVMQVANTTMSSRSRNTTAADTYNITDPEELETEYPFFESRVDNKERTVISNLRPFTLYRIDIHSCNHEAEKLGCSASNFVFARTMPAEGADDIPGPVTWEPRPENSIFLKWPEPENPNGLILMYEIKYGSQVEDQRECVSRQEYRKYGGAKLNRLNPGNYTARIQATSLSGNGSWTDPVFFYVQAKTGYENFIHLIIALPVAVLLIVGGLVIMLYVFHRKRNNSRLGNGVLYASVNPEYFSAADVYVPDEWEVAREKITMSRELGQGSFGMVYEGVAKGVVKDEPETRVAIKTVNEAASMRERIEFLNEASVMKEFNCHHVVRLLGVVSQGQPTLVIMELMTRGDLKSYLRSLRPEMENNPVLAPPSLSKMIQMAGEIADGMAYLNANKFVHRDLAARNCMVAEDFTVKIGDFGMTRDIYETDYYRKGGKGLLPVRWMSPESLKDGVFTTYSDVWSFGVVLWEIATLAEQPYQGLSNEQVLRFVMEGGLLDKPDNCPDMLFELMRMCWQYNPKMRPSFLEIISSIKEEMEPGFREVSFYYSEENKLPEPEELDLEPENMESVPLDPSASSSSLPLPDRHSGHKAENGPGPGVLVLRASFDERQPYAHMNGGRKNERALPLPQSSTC
IKBKE (human), sequence (Q14164 whole entry, looked up): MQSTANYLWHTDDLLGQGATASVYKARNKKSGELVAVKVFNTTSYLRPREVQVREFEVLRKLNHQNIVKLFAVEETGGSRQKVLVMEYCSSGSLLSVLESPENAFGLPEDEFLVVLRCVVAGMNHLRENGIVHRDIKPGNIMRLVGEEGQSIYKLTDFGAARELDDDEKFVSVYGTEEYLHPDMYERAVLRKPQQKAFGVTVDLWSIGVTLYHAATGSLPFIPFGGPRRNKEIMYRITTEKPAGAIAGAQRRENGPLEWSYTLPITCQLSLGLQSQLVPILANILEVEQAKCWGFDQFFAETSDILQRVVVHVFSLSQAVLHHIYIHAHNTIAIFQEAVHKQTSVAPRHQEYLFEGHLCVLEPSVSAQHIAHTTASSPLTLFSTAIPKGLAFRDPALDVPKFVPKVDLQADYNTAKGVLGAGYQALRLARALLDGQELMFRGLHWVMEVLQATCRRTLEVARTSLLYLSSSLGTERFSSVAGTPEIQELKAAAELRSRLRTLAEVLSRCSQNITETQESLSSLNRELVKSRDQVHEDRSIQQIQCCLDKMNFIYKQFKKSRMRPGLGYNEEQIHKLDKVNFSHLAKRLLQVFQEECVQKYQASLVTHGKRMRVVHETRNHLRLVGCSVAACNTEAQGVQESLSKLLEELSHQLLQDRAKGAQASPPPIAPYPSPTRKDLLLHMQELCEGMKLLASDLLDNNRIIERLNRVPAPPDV
PAK6 (human), sequence (Q9NQU5 whole entry, looked up): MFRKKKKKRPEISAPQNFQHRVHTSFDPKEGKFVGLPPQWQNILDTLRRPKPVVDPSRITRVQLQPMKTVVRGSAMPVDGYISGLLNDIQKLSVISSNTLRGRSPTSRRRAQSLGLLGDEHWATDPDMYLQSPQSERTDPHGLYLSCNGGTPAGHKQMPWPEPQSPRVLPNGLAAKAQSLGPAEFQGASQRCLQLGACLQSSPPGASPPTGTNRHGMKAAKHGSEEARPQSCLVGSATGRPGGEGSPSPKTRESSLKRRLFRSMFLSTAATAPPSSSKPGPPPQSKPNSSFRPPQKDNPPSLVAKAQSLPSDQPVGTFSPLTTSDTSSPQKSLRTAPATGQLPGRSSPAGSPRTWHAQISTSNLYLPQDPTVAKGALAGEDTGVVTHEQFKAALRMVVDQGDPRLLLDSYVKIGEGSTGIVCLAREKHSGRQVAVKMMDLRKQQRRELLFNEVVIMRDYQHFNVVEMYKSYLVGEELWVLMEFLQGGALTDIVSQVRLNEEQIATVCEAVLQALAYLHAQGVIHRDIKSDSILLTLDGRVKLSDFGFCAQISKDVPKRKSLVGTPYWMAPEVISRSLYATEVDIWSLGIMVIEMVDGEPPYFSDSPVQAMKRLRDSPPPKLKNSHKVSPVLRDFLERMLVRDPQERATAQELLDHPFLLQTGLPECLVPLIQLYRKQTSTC
PIM2 (human), sequence (Q9P1W9 whole entry, looked up): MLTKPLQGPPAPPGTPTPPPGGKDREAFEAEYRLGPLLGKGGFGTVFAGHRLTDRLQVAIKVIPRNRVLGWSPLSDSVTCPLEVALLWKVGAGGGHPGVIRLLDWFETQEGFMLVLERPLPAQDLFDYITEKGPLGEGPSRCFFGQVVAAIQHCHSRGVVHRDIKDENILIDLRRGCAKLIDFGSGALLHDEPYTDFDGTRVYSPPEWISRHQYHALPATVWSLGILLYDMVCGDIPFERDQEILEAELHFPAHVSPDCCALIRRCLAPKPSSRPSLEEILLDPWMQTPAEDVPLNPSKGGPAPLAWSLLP
MAPK3 (human), sequence (P27361 whole entry, looked up): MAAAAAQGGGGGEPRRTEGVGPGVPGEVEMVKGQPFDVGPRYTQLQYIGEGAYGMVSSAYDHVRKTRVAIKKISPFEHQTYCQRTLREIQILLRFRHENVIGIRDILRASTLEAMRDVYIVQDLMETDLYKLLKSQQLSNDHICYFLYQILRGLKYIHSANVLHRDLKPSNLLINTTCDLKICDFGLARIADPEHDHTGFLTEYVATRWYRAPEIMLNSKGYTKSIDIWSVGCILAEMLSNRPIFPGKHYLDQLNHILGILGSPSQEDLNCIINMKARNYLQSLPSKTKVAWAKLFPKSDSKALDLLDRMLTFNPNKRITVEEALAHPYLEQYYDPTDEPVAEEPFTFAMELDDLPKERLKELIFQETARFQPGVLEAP
MAPK15 (human), sequence (Q8TD08 whole entry, looked up): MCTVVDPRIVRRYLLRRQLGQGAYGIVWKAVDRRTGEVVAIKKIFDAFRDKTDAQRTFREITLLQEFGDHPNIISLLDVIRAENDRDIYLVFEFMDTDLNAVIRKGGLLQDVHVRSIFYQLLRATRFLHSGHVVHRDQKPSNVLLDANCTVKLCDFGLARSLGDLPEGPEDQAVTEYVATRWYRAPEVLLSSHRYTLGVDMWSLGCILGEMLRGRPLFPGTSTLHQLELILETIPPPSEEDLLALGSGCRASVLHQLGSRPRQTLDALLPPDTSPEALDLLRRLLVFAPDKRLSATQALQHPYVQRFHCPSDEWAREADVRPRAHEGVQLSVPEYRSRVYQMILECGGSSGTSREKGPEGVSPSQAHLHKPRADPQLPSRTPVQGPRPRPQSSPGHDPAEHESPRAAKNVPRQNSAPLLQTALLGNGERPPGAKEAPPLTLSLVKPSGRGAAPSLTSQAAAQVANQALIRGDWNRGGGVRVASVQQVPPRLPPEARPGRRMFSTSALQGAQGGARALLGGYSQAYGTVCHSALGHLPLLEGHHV

## Oc1ccc2ccccc2c1SSc1c(O)ccc2ccccc12
CLK2 (human); compound 1.0 µM
  residual activity: 77%
CLK2 (human); compound 5.0 µM
  residual activity: 48%
CHEK1 (human); compound 1.0 µM
  residual activity: 89%
CHEK1 (human); compound 5.0 µM
  residual activity: 88%
CHEK1 (human); compound 10.0 µM
  residual activity: 88%
PIM3 (human); compound 1.0 µM
  residual activity: 76%
PIM3 (human); compound 5.0 µM
  residual activity: 17%
PIM3 (human); compound 10.0 µM
  residual activity: 58%
SRPK1 (human); compound 1.0 µM
  residual activity: 62%
SRPK1 (human); compound 5.0 µM
  residual activity: 47%
SRPK1 (human); compound 10.0 µM
  residual activity: 84%
[1]; compound 1.0 µM
  residual activity: 89%
[1]; compound 5.0 µM
  residual activity: 48%
[1]; compound 10.0 µM
  residual activity: 107%
MAPKAPK2 (human); compound 1.0 µM
  residual activity: 90%
MAPKAPK2 (human); compound 5.0 µM
  residual activity: 69%
MAPKAPK2 (human); compound 10.0 µM
  residual activity: 76%
PAK7 (human); compound 1.0 µM
  residual activity: 99%
PAK7 (human); compound 5.0 µM
  residual activity: 49%
PAK7 (human); compound 10.0 µM
  residual activity: 121%
DYRK1A (human); compound 1.0 µM
  residual activity: 47%
DYRK1A (human); compound 5.0 µM
  residual activity: 19%
DYRK1A (human); compound 10.0 µM
  residual activity: 83%
MAP3K7 TAB1 (human); compound 1.0 µM
  residual activity: 47%
MAP3K7 TAB1 (human); compound 5.0 µM
  residual activity: 15%
PLK1 (human); compound 1.0 µM
  residual activity: 90%
PLK1 (human); compound 5.0 µM
  residual activity: 12%
PLK1 (human); compound 10.0 µM
  residual activity: 9%
NEK2 (human); compound 1.0 µM
  residual activity: 10%
NEK2 (human); compound 5.0 µM
  residual activity: 8%
NEK2 (human); compound 10.0 µM
  residual activity: 54%
PAK4 (human); compound 1.0 µM
  residual activity: 119%
PAK4 (human); compound 5.0 µM
  residual activity: 45%
PAK4 (human); compound 10.0 µM
  residual activity: 98%
PKN2 (human); compound 1.0 µM
  residual activity: 72%
PKN2 (human); compound 5.0 µM
  residual activity: 30%
PKN2 (human); compound 10.0 µM
  residual activity: 87%
NEK6 (human); compound 1.0 µM
  residual activity: 34%
NEK6 (human); compound 5.0 µM
  residual activity: 11%
NEK6 (human); compound 10.0 µM
  residual activity: 65%
EPHA4 (human); compound 1.0 µM
  residual activity: 98%
EPHA4 (human); compound 5.0 µM
  residual activity: 89%
MAPK3 (human); compound 1.0 µM
  residual activity: 9%
MAPK3 (human); compound 5.0 µM
  residual activity: 6%
MAPK3 (human); compound 10.0 µM
  residual activity: 8%
MAPK12 (human); compound 1.0 µM
  residual activity: 97%
MAPK12 (human); compound 5.0 µM
  residual activity: 99%
MAPK12 (human); compound 10.0 µM
  residual activity: 103%
RPS6KA3 KD1 KD2 (human); compound 1.0 µM
  residual activity: 12%
RPS6KA3 KD1 KD2 (human); compound 5.0 µM
  residual activity: 6%
RPS6KA3 KD1 KD2 (human); compound 10.0 µM
  residual activity: 6%
IGF1R (human); compound 1.0 µM
  residual activity: 87%
IGF1R (human); compound 5.0 µM
  residual activity: 94%
IGF1R (human); compound 10.0 µM
  residual activity: 84%
CSNK1D (human); compound 1.0 µM
  residual activity: 96%
CSNK1D (human); compound 5.0 µM
  residual activity: 94%
PAK6 (human); compound 1.0 µM
  residual activity: 86%
PAK6 (human); compound 5.0 µM
  residual activity: 45%
PAK6 (human); compound 10.0 µM
  residual activity: 101%
PIM2 (human); compound 1.0 µM
  residual activity: 65%
PIM2 (human); compound 5.0 µM
  residual activity: 21%
PIM2 (human); compound 10.0 µM
  residual activity: 81%
RPS6KA5 KD1 KD2 (human); compound 1.0 µM
  residual activity: 79%
RPS6KA5 KD1 KD2 (human); compound 5.0 µM
  residual activity: 65%
RPS6KA5 KD1 KD2 (human); compound 10.0 µM
  residual activity: 101%
[2]; compound 1.0 µM
  residual activity: 5%
[2]; compound 5.0 µM
  residual activity: 2%
CAMKK2 (human); compound 1.0 µM
  residual activity: 98%
CAMKK2 (human); compound 5.0 µM
  residual activity: 49%
CAMKK2 (human); compound 10.0 µM
  residual activity: 90%
RIPK2 (human); compound 1.0 µM
  residual activity: 117%
RIPK2 (human); compound 5.0 µM
  residual activity: 114%
MARK2 (human); compound 1.0 µM
  residual activity: 85%
MARK2 (human); compound 5.0 µM
  residual activity: 66%
IKBKE (human); compound 1.0 µM
  residual activity: 7%
IKBKE (human); compound 5.0 µM
  residual activity: 4%
IKBKE (human); compound 10.0 µM
  residual activity: 70%
MAPK15 (human); compound 1.0 µM
  residual activity: 2%
MAPK15 (human); compound 5.0 µM
  residual activity: 1%
MAPK15 (human); compound 10.0 µM
  residual activity: 49%
HIPK3 (human); compound 1.0 µM
  residual activity: 37%
HIPK3 (human); compound 5.0 µM
  residual activity: 33%
[3]; compound 1.0 µM
  residual activity: 1%
[3]; compound 5.0 µM
  residual activity: 0%
[3]; compound 10.0 µM
  residual activity: 0%
IRAK4 (human); compound 1.0 µM
  residual activity: 47%
IRAK4 (human); compound 5.0 µM
  residual activity: 9%
MST4 (human); compound 1.0 µM
  residual activity: 6%
MST4 (human); compound 5.0 µM
  residual activity: 8%
MST4 (human); compound 10.0 µM
  residual activity: 53%
MAPK14 (human); compound 1.0 µM
  residual activity: 80%
MAPK14 (human); compound 5.0 µM
  residual activity: 68%
MAPK14 (human); compound 10.0 µM
  residual activity: 83%
MARK1 (human); compound 1.0 µM
  residual activity: 65%
MARK1 (human); compound 5.0 µM
  residual activity: 38%

Reference: the kinase profiling compilation of Christmann-Franck et al. (2016)
